Test results from patent US20260070945A1, “MACROCYCLIC IMMUNOMODULATORS” (Bristol-Myers Squibb Company, priority 2022, published 2026).
pIC50: −log10 of the molar value. Where a SMILES comes first, the peptide text is derived from it. Bridges are numbered along the chain shown (N, C = ends). [ ]: non-standard residue; d: D form. The star is where a group is joined. ξ: configuration not given here. Phe(4-COOH) = N[C@@H](Cc1ccc(C(=O)O)cc1)C(=O)O; Bip = N[C@@H](Cc1ccc(-c2ccccc2)cc1)C(=O)O; Phe(3-Me) = Cc1cccc(C[C@H](N)C(=O)O)c1; hhGln = NC(=O)CCCC[C@H](N)C(=O)O; Cha = N[C@@H](CC1CCCCC1)C(=O)O; Cit = NC(=O)NCCC[C@H](N)C(=O)O; Thr(3ξ) = CC(O)[C@H](N)C(=O)O; hSer = N[C@@H](CCO)C(=O)O; Carboxymethyl = O=C(O)C*; NMeA = CN[C@@H](C)C(=O)O; Aun = NCCCCCCCCCCC(=O)O; Dab = NCC[C@H](N)C(=O)O; AEEA = NCCOCCOCC(=O)O

target: T1, PD-1/PD-L1 interaction (PE-labeled human PD-L1-Ig binding to Jurkat cell line over-expressing human PD-1) (Homo sapiens, UniProt Q15116); experiment: Jurkat-PD-1 Cell Binding High-Content Screening Assay (CBA); details: Jurkat-hPD-1 cells, PE-labeled PD-L1-Ig 20 nM final; read-out: Jurkat HPD1 PDL1 IC50
T1 construct: expressed in transfected cells; host or cells: Jurkat
T1 sequence (Q15116 25-288): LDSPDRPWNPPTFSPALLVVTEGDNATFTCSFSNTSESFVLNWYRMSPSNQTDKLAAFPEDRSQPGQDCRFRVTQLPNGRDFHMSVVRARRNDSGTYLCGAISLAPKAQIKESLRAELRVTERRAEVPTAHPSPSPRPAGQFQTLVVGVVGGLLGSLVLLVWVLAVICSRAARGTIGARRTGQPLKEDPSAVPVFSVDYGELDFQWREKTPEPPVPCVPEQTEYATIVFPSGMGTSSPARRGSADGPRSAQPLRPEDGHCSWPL
Outline: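 High-content imaging read-out of PE-PD-L1-Ig binding (20 nM final, 1 h) to Jurkat-hPD-1 cells, after 2 h compound exposure at 37 °C in DMEM with 10% FCS. Nuclei counterstained with Hoechst 33342 after paraformaldehyde fixation.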

| Compound | pIC50 |
| --- | --- |
| Cc1cccc(C[C@@H]2NC(=O)[C@H](CC(=O)O)NC(=O)[C@H](Cc3ccc(OCC(=O)O)cc3)NC(=O)[C@H](C(C)O)NC(=O)CSC[C@@H](C(=O)N[C@@H](CCN)C(=O)NCCCCCCCCCCC(=O)O)NC(=O)[C@H](C(C)O)NC(=O)[C@H](C(C)C)NC(=O)[C@H](CC3CCCCC3)NC(=O)[C@H](CCN)NC(=O)[C@@H](CC(C)C)NC(=O)[C@H](C)N(C)C(=O)[C@H](CCCNC(N)=O)NC(=O)[C@H](Cc3ccc(-c4ccccc4)cc3)NC(=O)[C@H](C(C)C)NC2=O)c1 (stereo partly drawn) [Example 2336] ({CH2CO}-[Thr(3ξ)]Y(Carboxymethyl)D[Phe(3-Me)]V[Bip][Cit][NMeA][dL][Dab][Cha]V[Thr(3ξ)]C[Dab][Aun]-OH; thioether N-14) | 8.17 |
| Cc1cccc(C[C@@H]2NC(=O)[C@H](CC(=O)O)NC(=O)[C@H](Cc3ccc(OCC(=O)O)cc3)NC(=O)[C@H](C(C)O)NC(=O)CSC[C@@H](C(=O)N[C@H](CC(N)=O)C(=O)NCCCCCCCCCCC(=O)O)NC(=O)[C@H](C(C)O)NC(=O)[C@H](C(C)C)NC(=O)[C@H](CC3CCCCC3)NC(=O)[C@H](CCN)NC(=O)[C@@H](CC(C)C)NC(=O)[C@H](C)N(C)C(=O)[C@H](CCCNC(=N)N)NC(=O)[C@H](Cc3ccc(-c4ccccc4)cc3)NC(=O)[C@H](Cc3ccc(O)cc3)NC2=O)c1 (stereo partly drawn) [Example 2338] ({CH2CO}-[Thr(3ξ)]Y(Carboxymethyl)D[Phe(3-Me)]Y[Bip]R[NMeA][dL][Dab][Cha]V[Thr(3ξ)]C[dN][Aun]-OH; thioether N-14) | 8.26 |
| Cc1cccc(C[C@@H]2NC(=O)[C@H](CC(=O)O)NC(=O)[C@H](Cc3ccc(OCC(=O)O)cc3)NC(=O)[C@H](C(C)O)NC(=O)CSC[C@@H](C(=O)NCCOCCOCC(=O)NCCCCCCCCCCC(=O)O)NC(=O)[C@H](C(C)O)NC(=O)[C@H](C(C)C)NC(=O)[C@H](CC3CCCCC3)NC(=O)[C@H](CCN)NC(=O)[C@@H](CC(C)C)NC(=O)[C@H](C)N(C)C(=O)[C@H](Cc3ccc(OCC(=O)O)cc3)NC(=O)[C@H](Cc3ccc(-c4ccccc4)cc3)NC(=O)[C@H](Cc3ccc(OCC(=O)O)cc3)NC2=O)c1 (stereo partly drawn) [Example 2341] ({CH2CO}-[Thr(3ξ)]Y(Carboxymethyl)D[Phe(3-Me)]Y(Carboxymethyl)[Bip]Y(Carboxymethyl)[NMeA][dL][Dab][Cha]V[Thr(3ξ)]C[AEEA][Aun]-OH; thioether N-14) | 7.38 |
| Cc1cccc(C[C@@H]2NC(=O)[C@H](CC(=O)O)NC(=O)[C@H](Cc3ccc(OCC(=O)O)cc3)NC(=O)[C@H](CCCNC(=N)N)NC(=O)CSC[C@@H](C(=O)NCCOCCOCC(=O)NCCCCCCCCCCC(=O)O)NC(=O)[C@H](C(C)O)NC(=O)[C@H](C(C)C)NC(=O)[C@H](CC3CCCCC3)NC(=O)[C@H](CCN)NC(=O)[C@@H](CC(C)C)NC(=O)[C@H](C)N(C)C(=O)[C@H](Cc3ccc(OCC(=O)O)cc3)NC(=O)[C@H](Cc3ccc(-c4ccccc4)cc3)NC(=O)[C@H](Cc3ccc(OCC(=O)O)cc3)NC2=O)c1 (stereo partly drawn) [Example 2342] ({CH2CO}-RY(Carboxymethyl)D[Phe(3-Me)]Y(Carboxymethyl)[Bip]Y(Carboxymethyl)[NMeA][dL][Dab][Cha]V[Thr(3ξ)]C[AEEA][Aun]-OH; thioether N-14) | 7.13 |
| Cc1cccc(C[C@@H]2NC(=O)[C@H](CC(=O)O)NC(=O)[C@H](Cc3ccc(OCC(=O)O)cc3)NC(=O)[C@H](C(C)O)NC(=O)CSC[C@@H](C(=O)NCCOCCOCC(=O)NCCCCCCCCCCC(=O)O)NC(=O)[C@H](C(C)O)NC(=O)[C@H](C(C)C)NC(=O)[C@H](CC3CCCCC3)NC(=O)[C@H](CCN)NC(=O)[C@@H](CC(C)C)NC(=O)[C@H](C)N(C)C(=O)[C@H](Cc3ccc(OCC(=O)O)cc3)NC(=O)[C@H](Cc3ccc(-c4ccccc4)cc3)NC(=O)[C@H](Cc3ccc(C(=O)O)cc3)NC2=O)c1 (stereo partly drawn) [Example 2343] ({CH2CO}-[Thr(3ξ)]Y(Carboxymethyl)D[Phe(3-Me)][Phe(4-COOH)][Bip]Y(Carboxymethyl)[NMeA][dL][Dab][Cha]V[Thr(3ξ)]C[AEEA][Aun]-OH; thioether N-14) | 7.29 |
| Cc1cccc(C[C@@H]2NC(=O)[C@H](CC(=O)O)NC(=O)[C@H](Cc3ccc(OCC(=O)O)cc3)NC(=O)[C@H](C(C)O)NC(=O)CSC[C@@H](C(=O)NCCOCCOCC(=O)NCCCCCCCCCCC(=O)O)NC(=O)[C@H](C(C)O)NC(=O)[C@H](C(C)C)NC(=O)[C@H](CC3CCCCC3)NC(=O)[C@H](CCN)NC(=O)[C@@H](CC(C)C)NC(=O)[C@H](C)N(C)C(=O)[C@H](Cc3ccc(OCC(=O)O)cc3)NC(=O)[C@H](Cc3ccc(-c4ccccc4)cc3)NC(=O)[C@H](CCCCC(N)=O)NC2=O)c1 (stereo partly drawn) [Example 2345] ({CH2CO}-[Thr(3ξ)]Y(Carboxymethyl)D[Phe(3-Me)][hhGln][Bip]Y(Carboxymethyl)[NMeA][dL][Dab][Cha]V[Thr(3ξ)]C[AEEA][Aun]-OH; thioether N-14) | 7.17 |
| Cc1cccc(C[C@@H]2NC(=O)[C@H](CC(=O)O)NC(=O)[C@H](Cc3ccc(OCC(=O)O)cc3)NC(=O)[C@H](C(C)O)NC(=O)CSC[C@@H](C(=O)NCCOCCOCC(=O)NCCCCCCCCCCC(=O)O)NC(=O)[C@H](C(C)O)NC(=O)[C@H](C(C)C)NC(=O)[C@H](CC3CCCCC3)NC(=O)[C@H](CCN)NC(=O)[C@@H](CC(C)C)NC(=O)[C@H](C)N(C)C(=O)[C@H](Cc3ccc(OCC(=O)O)cc3)NC(=O)[C@H](Cc3ccc(-c4ccccc4)cc3)NC(=O)[C@H](C(C)C)NC2=O)c1 (stereo partly drawn) [Example 2346] ({CH2CO}-[Thr(3ξ)]Y(Carboxymethyl)D[Phe(3-Me)]V[Bip]Y(Carboxymethyl)[NMeA][dL][Dab][Cha]V[Thr(3ξ)]C[AEEA][Aun]-OH; thioether N-14) | 7.64 |
| Cc1cccc(C[C@@H]2NC(=O)[C@H](CC(=O)O)NC(=O)[C@H](Cc3ccc(OCC(=O)O)cc3)NC(=O)[C@H](C(C)O)NC(=O)CSC[C@@H](C(=O)N[C@@H](CCN)C(=O)NCCCCCCCCCCC(=O)O)NC(=O)[C@H](C(C)O)NC(=O)[C@H](C(C)C)NC(=O)[C@H](CC3CCCCC3)NC(=O)[C@H](CCN)NC(=O)[C@@H](CC(C)C)NC(=O)[C@H](C)N(C)C(=O)[C@H](Cc3ccc(OCC(=O)O)cc3)NC(=O)[C@H](Cc3ccc(-c4ccccc4)cc3)NC(=O)[C@H](Cc3ccc(C(=O)O)cc3)NC2=O)c1 (stereo partly drawn) [Example 2347] ({CH2CO}-[Thr(3ξ)]Y(Carboxymethyl)D[Phe(3-Me)][Phe(4-COOH)][Bip]Y(Carboxymethyl)[NMeA][dL][Dab][Cha]V[Thr(3ξ)]C[Dab][Aun]-OH; thioether N-14) | 8.03 |
| Cc1cccc(C[C@@H]2NC(=O)[C@H](CC(=O)O)NC(=O)[C@H](Cc3ccc(OCC(=O)O)cc3)NC(=O)[C@H](C(C)O)NC(=O)CSC[C@@H](C(=O)N[C@@H](CCN)C(=O)NCCCCCCCCCCC(=O)O)NC(=O)[C@H](CCO)NC(=O)[C@H](C(C)C)NC(=O)[C@H](CC3CCCCC3)NC(=O)[C@H](CCN)NC(=O)[C@@H](CC(C)C)NC(=O)[C@H](C)N(C)C(=O)[C@H](Cc3ccc(OCC(=O)O)cc3)NC(=O)[C@H](Cc3ccc(-c4ccccc4)cc3)NC(=O)[C@H](CCCNC(N)=O)NC2=O)c1 (stereo partly drawn) [Example 2348] ({CH2CO}-[Thr(3ξ)]Y(Carboxymethyl)D[Phe(3-Me)][Cit][Bip]Y(Carboxymethyl)[NMeA][dL][Dab][Cha]V[hSer]C[Dab][Aun]-OH; thioether N-14) | 7.52 |
| Cc1cccc(C[C@@H]2NC(=O)[C@H](CC(=O)O)NC(=O)[C@H](Cc3ccc(OCC(=O)O)cc3)NC(=O)[C@H](CCCNC(=N)N)NC(=O)CSC[C@@H](C(=O)N[C@@H](CCN)C(=O)NCCCCCCCCCCC(=O)O)NC(=O)[C@H](C(C)O)NC(=O)[C@H](C(C)C)NC(=O)[C@H](CC3CCCCC3)NC(=O)[C@H](CCN)NC(=O)[C@@H](CC(C)C)NC(=O)[C@H](C)N(C)C(=O)[C@H](Cc3ccc(OCC(=O)O)cc3)NC(=O)[C@H](Cc3ccc(-c4ccccc4)cc3)NC(=O)[C@H](CCCNC(N)=O)NC2=O)c1 (stereo partly drawn) [Example 2349] ({CH2CO}-RY(Carboxymethyl)D[Phe(3-Me)][Cit][Bip]Y(Carboxymethyl)[NMeA][dL][Dab][Cha]V[Thr(3ξ)]C[Dab][Aun]-OH; thioether N-14) | 7.49 |
| Cc1cccc(C[C@@H]2NC(=O)[C@H](CC(=O)O)NC(=O)[C@H](Cc3ccc(OCC(=O)O)cc3)NC(=O)[C@H](CCCNC(=N)N)NC(=O)CSC[C@@H](C(=O)N[C@@H](CCN)C(=O)NCCCCCCCCCCC(=O)O)NC(=O)[C@H](CCO)NC(=O)[C@H](C(C)C)NC(=O)[C@H](CC3CCCCC3)NC(=O)[C@H](CCN)NC(=O)[C@@H](CC(C)C)NC(=O)[C@H](C)N(C)C(=O)[C@H](Cc3ccc(OCC(=O)O)cc3)NC(=O)[C@H](Cc3ccc(-c4ccccc4)cc3)NC(=O)[C@H](Cc3ccc(C(=O)O)cc3)NC2=O)c1 [Example 2350] ({CH2CO}-RY(Carboxymethyl)D[Phe(3-Me)][Phe(4-COOH)][Bip]Y(Carboxymethyl)[NMeA][dL][Dab][Cha]V[hSer]C[Dab][Aun]-OH; thioether N-14) | 8.25 |
| Cc1cccc(C[C@@H]2NC(=O)[C@H](CC(=O)O)NC(=O)[C@H](Cc3ccc(OCC(=O)O)cc3)NC(=O)[C@H](C(C)O)NC(=O)CSC[C@@H](C(=O)N[C@@H](CCN)C(=O)NCCCCCCCCCCC(=O)O)NC(=O)[C@H](CCO)NC(=O)[C@H](C(C)C)NC(=O)[C@H](CC3CCCCC3)NC(=O)[C@H](CCN)NC(=O)[C@@H](CC(C)C)NC(=O)[C@H](C)N(C)C(=O)[C@H](Cc3ccc(OCC(=O)O)cc3)NC(=O)[C@H](Cc3ccc(-c4ccccc4)cc3)NC(=O)[C@H](Cc3ccc(C(=O)O)cc3)NC2=O)c1 (stereo partly drawn) [Example 2352] ({CH2CO}-[Thr(3ξ)]Y(Carboxymethyl)D[Phe(3-Me)][Phe(4-COOH)][Bip]Y(Carboxymethyl)[NMeA][dL][Dab][Cha]V[hSer]C[Dab][Aun]-OH; thioether N-14) | 7.84 |
